According to patent publication US11642419B2, “Compositions and methods for treating cardiovascular related disorders” (The Regents of the University of Michigan, priority 2015, dated 2023):

Legend:
[1] = test system: SREBP1c; assay: qRT-PCR of SREBP1c in the liver of apoE−/− mice; assay type: in vivo; conditions: liver tissues from FIG. 12, FIG. 13
Procedure: (§1) Six-week-old male apoE^−/− mice were place on atherogenic high fat diet (HFD) for 12 weeks to induce atherosclerotic lesion formation. Mice were randomly divided into five groups, and each group was treated with intraperitoneal injections of the following regimens with an equivalent dose of 1.5 mg/kg entrapped TO901317: 1) PBS, 2) DMSO, 3) TO901317 dissolved in dimethyl sulfoxide (DMSO) (free TO901317), 4) sHDL nanoparticles, or 5) TO901317-encapsulated sHDL particles. The mice were treated for 6 weeks (three times per week, on Monday, Wednesday and Friday). Liver tissue triglyceride concentrations were measured using a Triglyceride Quantification Kit (Cayman). Fifty mg of liver was homogenized in a 5% NP-40 buffer, and assay was performed according to manufacturer's directions.
LXR ligands have been implicated in triggering induction of the lipogenic pathway via activation of SREBP-1c in the liver, which leads to the adverse effects of steatosis and hypertriglyceridemia. The liver tissues from FIG. 12 were used to detect the expression of SREBP1c and Fatty acid synthase (FAS) using qRT-PCR as described in FIG. 5.

[2] = test system: ABCG1; assay: qRT-PCR of ABCG1 in blood monocytes of treated apoE−/− mice; assay type: in vivo; conditions: 1.5 mg/kg TO901317 i.p., three times per week, 6 weeks, FIG. 11
Procedure: (§2) The effect of TO901317-encapsulated sHDL on target gene expression in monocytes from apoE^−/− mice was also investigated. Six-week-old male apoE^−/− mice were place on atherogenic high fat diet (HFD) for 12 weeks to induce atherosclerotic lesion formation. Mice were randomly divided into five groups, and each group was treated with intraperitoneal injections of the following regimens with an equivalent dose of 1.5 mg/kg entrapped TO901317: 1) PBS, 2) DMSO, 3) TO901317 dissolved in dimethyl sulfoxide (DMSO) (free TO901317), 4) sHDL nanoparticles, or 5) TO901317-encapsulated sHDL particles. The mice were treated for 6 weeks (three times per week, on Monday, Wednesday and Friday). The monocytes from the blood were isolated and the expression of ABCA1 and ABCG1 was detected by qRT-PCR as described in FIG. 5.

[3] = Plasma lipids in C57BL/6J mice; assay type: in vivo; conditions: TO901317 0.5, 1.5, 10 mg/kg intraperitoneal, 24 hours later, FIG. 8
Procedure: (§3) FIGS. 8A and 8B show the effects of TO901317-encapsulated sHDL particles on plasma lipids in C57BL/6J Mice. C57BL/6J wild type mice were divided into 8 groups and treated with DMSO, TO901317 at 0.5 mg/kg, TO901317 at 1.5 mg/kg, TO901317 at 10 mg/kg, or sHDL blank particles, TO901317-encapsulated sHDL particles with TO901317 at 0.5 mg/kg, TO901317-encapsulated sHDL particles with TO901317 at 1.5 mg/kg, TO901317-encapsulated sHDL particles with TO901317 at 10 mg/kg via intraperitoneal injection. Twenty-four hours later, collected plasma and liver tissues were stored at −80° C. until processed. Direct LDL-cholesterol (LDL-c), direct HDL-cholesterol (HDL-c), and enzymatic-colorimetric assays used to determine plasma total cholesterol (TC) and triglycerides (TG) were carried out at the Chemistry Laboratory of the Michigan Diabetes Research and Training Center.

[4] = Liver tissue triglyceride in apoE−/− mice; assay type: in vivo; conditions: 1.5 mg/kg TO901317 i.p., three times per week, 6 weeks, FIG. 12
Procedure: as §1

[5] = test system: ABCA1; assay: qRT-PCR of ABCA1 expression in J774.1 macrophages; assay type: cell-based, murine; conditions: FIG. 3C
Procedure: (§4) Incorporation of LXR agonist into sHDL is the first and most important step for all subsequent studies. Phospholipids, apoA-I mimetic peptide (22A) and LXR agonist TO901317 (TO) were hydrated in an aqueous solution and the sHDL nanoparticles were formed after 3 cycles of thermal cycling between 25 and 50° C. (see, e.g., Di Bartolo, B. A.; et al., Atherosclerosis 2011, 217 (2), 395-400; Dasseux, J.-L. Peptide/lipid complex formation by co-lyophilization. 2001). The homogeneity of the size distribution was confirmed by gel permeation chromatography (GPC) and scanning electron microscopy (SEM) (FIG. 3A-B). The average particle size of sHDL was 6-14 nm (e.g., 8-10 nm) as determined by dynamic light scattering using a Malvern Nanosizer. […]
(§5) In macrophages, LXRs control transcription of several genes involved in the cholesterol efflux pathway, including ABCA1 and ABCG1. To examine the ability of TO901317-encapsulated sHDL particles to activate LXR-target genes, J774.1 murine macrophage cells were incubated with sHDL blank particles or TO901317-encapsulated sHDL particles (TO901317 at 10^−6M) for 4 hours and the expression of both genes were measured using quantitative real-time PCR (qRT-PCR). […] The resulting cDNA was amplified with appropriate primers using power SYBR Green PCR Master Mix and analyzed on a CFX real-time PCR system (Bio-Rad). […]

[6] = test system: ABCG1; assay: qRT-PCR of ABCG1 expression in J774.1 macrophages; assay type: cell-based, murine; conditions: FIG. 3D
Procedure: as §4, §5

[7] = test system: SREBP1c; assay: qRT-PCR of SREBP1c expression in the liver of C57BL/6J mice; assay type: in vivo; conditions: liver tissues from FIG. 8, FIG. 9
Procedure: To visualize whether sHDL can deliver its cargo to the plaque efficiently, a lipophilic near-infrared fluorescent dye, DiD, was incorporated into sHDL. […] The DiD-labeled sHDL nanoparticles were administrated by tail vein injection at a dose of 100 μg DiD and 10 mg/Kg sHDL to a murine atherosclerosis model. 24 hours post injection, animals were sacrificed and aortas were removed. DiD fluorescence associated with aortas were analyzed using the Xenogen IVIS optical imaging system. […] The side effects of different LXR agonist formulations were assessed.
as §3, with “Direct LDL-cholesterol (LDL-c), direct HDL-cholesterol (HDL-c), and enzymatic-colorimetric assays used to determine plasma total cholesterol (TC) and triglycerides (TG) were carried out at the Chemistry Laboratory of the Michigan Diabetes Research and Training Center.” left out

[8] = test system: ABCA1; assay: qRT-PCR of ABCA1 in blood monocytes of treated apoE−/− mice; assay type: in vivo; conditions: 1.5 mg/kg TO901317 i.p., three times per week, 6 weeks, FIG. 11
Procedure: as §2

[9] = Plasma lipids in apoE-deficient mice; assay type: in vivo; conditions: apoE-deficient mice on HFD, i.p., three times per week, 6 weeks, FIG. 22
Procedure: Six-week-old male apoE^−/− mice were place on HFD for 6 weeks to induce atherosclerotic lesion formation. Mice were randomized into 5 groups and received intraperitoneal injection with 1) PBS, 2) DMSO, 3) CD3254 dissolved in dimethyl sulfoxide (DMSO) (free CD3254, at 0.1 mg/kg), 4) sHDL nanoparticles, or 5) CD3254-encapsulated sHDL particles with a dose of 0.1 mg/kg of CD3254. The mice were treated for 6 weeks (three times per week, on Monday, Wednesday and Friday). Direct LDL-cholesterol (LDL-c), direct HDL-cholesterol (HDL-c), and enzymatic-colorimetric assays used to determine plasma total cholesterol (TC) and triglycerides (TG) were carried out at the Chemistry Laboratory of the Michigan Diabetes Research and Training Center.

With O=S(=O)(c1ccccc1)N(CC(F)(F)F)c1ccc(C(O)(C(F)(F)F)C(F)(F)F)cc1 [TO901317] the “expression of SREBP1c in the liver (qRT-PCR)” value [1] was “activated SREBP1c”, the “ABCG1 expression in monocytes (qRT-PCR)” value [2] was “activated the expression” and the “plasma TG levels” value [3] was “significantly elevated”. The “triglyceride accumulation in the liver” value [4] was “significantly induced the accumulation of triglyceride”, the “ABCA1 expression (qRT-PCR)” value [5] was “upregulated” and the “ABCG1 expression (qRT-PCR)” value [6] was “upregulated”. For the same compound, the “expression of SREBP1c in the liver (qRT-PCR)” value [7] was “activated SREBP1c”, the “ABCA1 expression in monocytes (qRT-PCR)” value [8] was “activated the expression” and the “plasma TG levels” value [9] was “significantly elevated”.
